Assay: in vitro
Settings: human, hek293t cells

| Structure (SMILES) | viability at 48 h, 25 µM [%] |
| --- | --- |
| C=CC(=O)N1CCC(C(=O)NCC(O)c2c(F)cccc2F)CC1 (stereo not drawn) [2-P14, N-[2-(2,6-difluorophenyl)-2-hydroxyethyl]-1-(prop-2-enoyl)piperidine-4-carboxamide] | 102 |
| C=CC(=O)NCC1(c2ccnn2C)CC1 [2-P15, N-{[1-(1-methyl-1H-pyrazol-5-yl)cyclopropyl]methyl}prop-2-enamide] | 78.8 |
| C=CC(=O)NCCC(=O)N1CCCN(c2cccnn2)CC1 [2-P16, N-{3-oxo-3-[4-(pyridazin-3-yl)-1,4-diazepan-1-yl]propyl}prop-2-enamide] | 77.8 |
| C=CC(=O)NC(C)(C)c1ccc(S(N)(=O)=O)cc1F [2-P17, N-[2-(2-fluoro-4-sulfamoylphenyl)propan-2-yl]prop-2-enamide] | 58.6 |
| C=CC(=O)Nc1cc(NC(=O)[C@@H]2CSCN2C(=O)CC)ccc1F [2-P18, (4R)-N-[4-fluoro-3-(prop-2-enamido)phenyl]-3-propanoyl-1,3-thiazolidine-4-carboxamide] | 91.2 |
| C=CC(=O)NCc1ccc(S(=O)(=O)NC2CC2)cc1 [2-P19, N-{[4-(cyclopropylsulfamoyl)phenyl]methyl}prop-2-enamide] | 62.3 |
| C=CC(=O)N1CCC(C(=O)NC2CCc3ncnn3C2)CC1 (stereo not drawn) [2-P20, 1-(prop-2-enoyl)-N-{5H,6H,7H,8H-[1,2,4]triazolo[1,5-a]pyridin-6-yl}piperidine-4-carboxamide] | 98 |
| C=CC(=O)NCc1ncc(C)o1 [2-P21, N-[(5-methyl-1,3-oxazol-2-yl)methyl]prop-2-enamide] | 48.8 |
| C=CC(=O)N(C)CC(=O)NC1CCCN(c2ccc(F)cc2F)C1=O (stereo not drawn) [2-P22, N-({[1-(2,4-difluorophenyl)-2-oxopiperidin-3-yl]carbamoyl}methyl)-N-methylprop-2-enamide] | 24.4 |
| C=CC(=O)NCC(C)(C)c1coc(-c2ccccc2)n1 [3-A03, N-[2-methyl-2-(2-phenyl-1,3-oxazol-4-yl)propyl]prop-2-enamide] | 45.6 |
| C=CC(=O)N(C)CC(=O)N1CCn2cc(C(F)(F)F)nc2C1 [3-A04, N-methyl-N-{2-oxo-2-[2-(trifluoromethyl)-5H,6H,7H,8H-imidazo[1,2-a]pyrazin-7-yl]ethyl}prop-2-enamide] | 60.6 |
| C=CC(=O)NCC1CN(Cc2cccc(C)c2)CCO1 (stereo not drawn) [3-A05, N-({4-[(3-methylphenyl)methyl]morpholin-2-yl}methyl)prop-2-enamide] | 41 |
| C=CC(=O)N(C)CC(=O)NC1CCC(N2CCCCC2=O)CC1 (stereo not drawn) [3-A06, N-methyl-N-({[4-(2-oxopiperidin-1-yl)cyclohexyl]carbamoyl}methyl)prop-2-enamide] | 62.1 |
| C=CC(=O)N1CCc2[nH]cnc2C1c1ccnn1C (stereo not drawn) [3-A07, 1-[4-(1-methyl-1H-pyrazol-5-yl)-1H,4H,5H,6H,7H-imidazo[4,5-c]pyridin-5-yl]prop-2-en-1-one] | 29.2 |
| C=CC(=O)N(CC)CC(=O)N1CCC(c2nnc(C)o2)CC1 [3-A08, N-ethyl-N-{2-[4-(5-methyl-1,3,4-oxadiazol-2-yl)piperidin-1-yl]-2-oxoethyl}prop-2-enamide] | 66.3 |
| C=CC(=O)N1CCOC(c2ccc(F)c(C)c2)C1 (stereo not drawn) [3-A09, 1-[2-(4-fluoro-3-methylphenyl)morpholin-4-yl]prop-2-en-1-one] | 38.4 |
| C=CC(=O)NC1CCS(=O)(=O)C(C)C1 (stereo not drawn) [3-A10, N-(2-methyl-1,1-dioxo-1lambda6-thian-4-yl)prop-2-enamide] | 68.8 |
| C=CC(=O)N1CCC(Cc2nc(CC)no2)CC1 [3-A11, 1-{4-[(3-ethyl-1,2,4-oxadiazol-5-yl)methyl]piperidin-1-yl}prop-2-en-1-one] | 60.7 |

| Structure (SMILES) | viability at 48 h, 25 µM [%] |
| --- | --- |
| C=CC(=O)N(C)CC(=O)NC1CCCN(c2cc(C)nc(C)n2)C1 (stereo not drawn) [3-A12, N-({[1-(2,6-dimethylpyrimidin-4-yl)piperidin-3-yl]carbamoyl}methyl)-N-methylprop-2-enamide] | 74.4 |
| C=CC(=O)N1CCCC(c2nc(N(C)C)no2)C1 (stereo not drawn) [3-A13, 1-{3-[3-(dimethylamino)-1,2,4-oxadiazol-5-yl]piperidin-1-yl}prop-2-en-1-one] | 29.9 |
| C=CC(=O)N(CC)CC(=O)N1CCc2[nH]nc(C(F)(F)F)c2C1 [3-A14, N-ethyl-N-{2-oxo-2-[3-(trifluoromethyl)-1H,4H,5H,6H,7H-pyrazolo[4,3-c]pyridin-5-yl]ethyl}prop-2-enamide] | 64.2 |
| C=CC(=O)NC(C)c1nnnn1C (stereo not drawn) [3-A15, N-[1-(1-methyl-1H-1,2,3,4-tetrazol-5-yl)ethyl]prop-2-enamide] | 23.9 |
| C=CC(=O)N1CCC(C(=O)NCC2COC3(CCCC3)O2)CC1 (stereo not drawn) [3-A16, N-({1,4-dioxaspiro[4.4]nonan-2-yl}methyl)-1-(prop-2-enoyl)piperidine-4-carboxamide] | 73.4 |
| C=CC(=O)N1CCOC(c2nc(C)cs2)C1 (stereo not drawn) [3-A17, 1-[2-(4-methyl-1,3-thiazol-2-yl)morpholin-4-yl]prop-2-en-1-one] | 26.2 |
| C=CC(=O)N1CCOC(CNC(=O)NC)C1 (stereo not drawn) [3-A18, 3-methyl-1-{[4-(prop-2-enoyl)morpholin-2-yl]methyl}urea] | 93.3 |
| C=CC(=O)N1CCN(S(=O)(=O)c2ccc(C(C)(C)C)cc2)CC1 [3-A19, 1-[4-(4-tert-butylbenzenesulfonyl)piperazin-1-yl]prop-2-en-1-one] | 24.5 |
| C=CC(=O)NC(C)c1ccc(S(=O)(=O)N(C)C)cc1 (stereo not drawn) [3-A20, N-{1-[4-(dimethylsulfamoyl)phenyl]ethyl}prop-2-enamide] | 51.5 |
| C=CC(=O)N1CCCN(C(=O)c2ccc(OC)cc2)CC1 [3-A21, 1-[4-(4-methoxybenzoyl)-1,4-diazepan-1-yl]prop-2-en-1-one] | 53.5 |
| C=CC(=O)N(C)C[C@@H]1CCC(=O)N1 [3-A22, N-methyl-N-{[(2S)-5-oxopyrrolidin-2-yl]methyl}prop-2-enamide] | 150 |
| C=CC(=O)N1CCC(C(=O)NCc2nccn2-c2ccccc2)CC1 [3-B03, N-[(1-phenyl-1H-imidazol-2-yl)methyl]-1-(prop-2-enoyl)piperidine-4-carboxamide] | 86.5 |
| C=CC(=O)N1CC(n2nc(C)cc2C)C1 [3-B04, 1-[3-(3,5-dimethyl-1H-pyrazol-1-yl)azetidin-1-yl]prop-2-en-1-one] | 77.4 |
| C=CC(=O)NCc1ccc(C(=O)N2CCOC3(CCCC3)C2)cc1 [3-B05, N-[(4-{6-oxa-9-azaspiro[4.5]decane-9-carbonyl}phenyl)methyl]prop-2-enamide] | 69.9 |
| C=CC(=O)Nc1ccc(OC)c(COC)c1 [3-B06, N-[4-methoxy-3-(methoxymethyl)phenyl]prop-2-enamide] | 89.7 |
| C=CC(=O)N1CCC(C(=O)Nc2ccn(Cc3ccccn3)n2)CC1 [3-B07, 1-(prop-2-enoyl)-N-{1-[(pyridin-2-yl)methyl]-1H-pyrazol-3-yl}piperidine-4-carboxamide] | 53.3 |
| C=CC(=O)Nc1ccc(C(=O)NC2CC(C)(C)OC2=O)cc1 (stereo not drawn) [3-B08, N-(5,5-dimethyl-2-oxooxolan-3-yl)-4-(prop-2-enamido)benzamide] | 82.4 |
| C=CC(=O)NC1(C(N)=O)CCCC1C (stereo not drawn) [3-B09, 2-methyl-1-(prop-2-enamido)cyclopentane-1-carboxamide] | 54.5 |
